Data: patent publication US20230381133A1, “TAU AND AMYLOID PROTEIN LOWERING COMPOUNDS AND METHODS OF USE” (Qatar Foundation for Education, Science and Community …, priority 2022, published 2023)

What was measured:
FTLD patient = assay: Treatment of a Frontotemporal Lobar Degeneration (FTLD) patient; format: in vivo; details: compared to a non-treated patient
Experimental: A therapeutically effective amount of the TA analog 2-(2-cyanophenylthio) benzoic acid is administered to an FTLD patient.

TBI patient = assay: Treatment of a Traumatic Brain Injury (TBI) patient; format: in vivo; details: compared to a non-treated patient
Experimental: A therapeutically effective amount of the TA analog 2-(2-cyanophenylthio) benzoic acid is administered to a TBI patient.

PSP patient = assay: Treatment of a Progressive Supranuclear Palsy (PSP) patient; format: in vivo; details: compared to a non-treated patient
Experimental: A therapeutically effective amount of the TA analog 2-(2-cyanophenylthio) benzoic acid is administered to a PSP patient.

[1] = test system: corticobasal degeneration patient; assay: Treatment of a corticobasal degeneration patient; format: in vivo; details: compared to a non-treated patient
Experimental: A therapeutically effective amount of the TA analog 2-(2-cyanophenylthio) benzoic acid is administered to a corticobasal degeneration patient.

CTE patient = assay: Treatment of a Chronic Traumatic Encephalopathy (CTE) patient; format: in vivo; details: compared to a non-treated patient
Experimental: A therapeutically effective amount of the TA analog 2-(2-cyanophenylthio) benzoic acid is administered to a CTE patient.

bvFTLD patient = assay: Treatment of a Behavioral Variant Frontotemporal Dementia (bvFTLD) patient; format: in vivo; details: compared to a non-treated patient
Experimental: A therapeutically effective amount of the TA analog 2-(2-cyanophenylthio) benzoic acid is administered to a bvFTLD patient.

AD patient = assay: Treatment of an AD patient; format: in vivo; details: compared to a non-treated patient
Experimental: A therapeutically effective amount of the TA analog 2-(2-cyanophenylthio) benzoic acid is administered to an AD patient.

Pick disease patient = assay: Treatment of a Pick disease patient; format: in vivo; details: compared to a non-treated patient
Experimental: A therapeutically effective amount of the TA analog 2-(2-cyanophenylthio) benzoic acid is administered to a Pick disease patient.

Down's Syndrome patient = assay: Treatment of a Down's Syndrome patient; format: in vivo; details: compared to a non-treated patient
Experimental: A therapeutically effective amount of the TA analog 2-(2-cyanophenylthio) benzoic acid is administered to a Down's Syndrome patient.

[2] = background statement; cited from earlier work
SP1 = SP1 (Homo sapiens, UniProt P08047); details: background statement; cited from earlier work
Chain of SP1 (P08047 whole entry): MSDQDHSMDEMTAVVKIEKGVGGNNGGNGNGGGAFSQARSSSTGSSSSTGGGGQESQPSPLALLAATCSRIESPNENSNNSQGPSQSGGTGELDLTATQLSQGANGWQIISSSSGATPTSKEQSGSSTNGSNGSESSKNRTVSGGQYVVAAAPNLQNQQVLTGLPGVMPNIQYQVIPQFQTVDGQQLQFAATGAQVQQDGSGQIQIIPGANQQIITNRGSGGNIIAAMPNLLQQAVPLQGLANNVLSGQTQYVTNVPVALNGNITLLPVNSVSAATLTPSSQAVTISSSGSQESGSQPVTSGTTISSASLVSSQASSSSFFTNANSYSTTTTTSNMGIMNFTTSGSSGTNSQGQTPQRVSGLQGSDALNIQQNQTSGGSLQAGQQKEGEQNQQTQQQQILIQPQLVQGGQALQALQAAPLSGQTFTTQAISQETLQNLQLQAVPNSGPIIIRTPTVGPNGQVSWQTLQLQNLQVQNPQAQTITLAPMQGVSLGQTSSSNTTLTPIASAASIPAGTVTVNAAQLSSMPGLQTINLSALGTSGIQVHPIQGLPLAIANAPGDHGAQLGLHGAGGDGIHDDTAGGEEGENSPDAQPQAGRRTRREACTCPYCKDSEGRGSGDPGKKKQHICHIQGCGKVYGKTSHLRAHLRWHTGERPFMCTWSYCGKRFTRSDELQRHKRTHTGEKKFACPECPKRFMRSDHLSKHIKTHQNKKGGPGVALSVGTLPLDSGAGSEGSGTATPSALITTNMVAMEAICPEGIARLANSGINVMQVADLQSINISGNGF

Row | Compound | patient's symptoms (FTLD patient) | patient's symptoms (TBI patient) | patient's symptoms (PSP patient) | patient's symptoms [1] | patient's symptoms (CTE patient) | patient's symptoms (bvFTLD patient) | patient's symptoms (AD patient) | patient's symptoms (Pick disease patient) | patient's symptoms (Down's Syndrome patient) | ability to cross the blood brain barrier (BBB) [2] | interaction with SP1 (SP1)
1 | N#Cc1ccccc1Sc1ccccc1C(=O)O [2-(2-cyanophenylthio) benzoic acid, 2-(2-cyanophenylthio)benzoic acid] | symptoms are reduced | symptoms are reduced | symptoms are reduced | symptoms are reduced | symptoms are reduced | symptoms are reduced | symptoms are reduced | symptoms are reduced | symptoms are reduced | – | –
2 | Cc1c(Cl)cccc1Nc1ccccc1C(=O)O [TA, Tolfenamic Acid] | – | – | – | – | – | – | – | – | – | cross the blood brain barrier | interact directly with SP1
